Where a SMILES comes first, the peptide text is derived from it. Bridges are numbered along the chain shown (N, C = ends).

For data set [1], the system named is Aphis glycines. Description: Dose response insect-feeding assay for E5 against Aphis glycines (sucrose/parafilm membrane, mortality scored after 72 hours). In kind it is in vivo. The following applies: adult insects, two replicates. As for the experimental part:
(§1) To test for the insecticidal activity of cyclotide E5 against the target homopteran pests, the lyophilized fractionated samples were placed in 96-well microtiter plates, resuspended in H2O and added to a 20% sucrose solution as detailed below. Parafilm was stretched to just short of its breaking point and used to seal the sucrose/sample reservoir. Adult insects were then added on top of the membrane in a second chamber such that the base of the insect enclosure was the parafilm membrane. The top of the insect chamber was then sealed with plastic wrap and punctured for air exchange. The number of insects feeding from each well was determined. The assay was scored after 72 hours and nsecticidal activity was measured based on insect mortality.
(§2) Specifically, for the dose-response assay results shown in Tables 1 and 2, lyophilized RP-HPLC-pure sample was resuspended in 300 μL H2O and added to 20% sucrose in the following volumes: 60, 45, 25, 10, and 5 μL. Two replicates per dose were prepared, including two negative controls. After 72 hours, the wells were scored for insect mortality.

Data set [2] concerns Peregrinus maidis. As to the kind of experiment: Dose response insect-feeding assay for E5 against Peregrinus maidis (sucrose/parafilm membrane, mortality scored after 72 hours). In kind it is in vivo. The following applies: adult insects, two replicates. As for the experimental part:
as §1, §2

Consider `CC[C@H](C)[C@@H]1NC(=O)[C@H](Cc2ccc(O)cc2)NC(=O)[C@H](C(C)C)NC(=O)[C@@H]2CSSC[C@@H]3NC(=O)[C@H](CCCCN)NC(=O)[C@@H]4CSSC[C@H](NC(=O)[C@@H]5CCCN5C(=O)[C@H]([C@@H](C)CC)NC(=O)[C@H](CCCCN)NC(=O)[C@H](CC(N)=O)NC(=O)[C@H](Cc5ccc(O)cc5)NC(=O)[C@H](CSSC[C@H](NC(=O)CNC1=O)C(=O)N[C@@H]([C@@H](C)O)C(=O)N[C@@H](CC(C)C)C(=O)N[C@@H]([C@@H](C)O)C(=O)N[C@@H](C)C(=O)N[C@@H](CC(C)C)C(=O)N[C@@H](C)C(=O)NCC(=O)N4)NC(=O)[C@H](C(C)C)NC(=O)[C@H](CCCCN)NC(=O)[C@H](CC(N)=O)NC(=O)[C@H](CCCCN)NC3=O)C(=O)NCC(=O)N[C@@H](CCC(=O)O)C(=O)N[C@@H](CO)C(=O)N2` [E5] (cyclo(AGCKCKNKVCYNKIPCGESCVYIGCTLTAL); disulfide 3-16, 5-20, 10-25 (inferred); ring closure inferred), for which the “average percent (%) insect mortality” value in data set [1] (E5 concentration 6.36 μM (5 μL)) was found to be 56.5%; in data set [1] (E5 concentration 12.73 μM (10 μL)), 80%; in data set [1] (E5 concentration 31.81 μM (25 μL)), 75%; in data set [1] (E5 concentration 57.26 μM (45 μL)), 95%; in data set [1] (E5 concentration 76.35 μM (60 μL)) it was 100%; in data set [2] (E5 concentration 2.73 μM (5 μL)), 90%. The “average percent (%) insect mortality” value was 90% in data set [2] (E5 concentration 4.09 μM (10 μL)), 95% in data set [2] (E5 concentration 9.97 μM (25 μL)), 100% in data set [2] (E5 concentration 16.61 μM (45 μL)) and 100% in data set [2] (E5 concentration 33.22 μM (60 μL)).

The values are drawn from patent US7442855B2, “Insecticidal plant cyclotide with activity against Homopteran insects” (E. I. du Pont De Nemours and Company, priority 2004, dated 2008).
